From patent US20240269106A1, “SMALL MOLECULE MODULATOR TARGETING A RARE HISTONE MODIFICATION REGULATING ADIPOGENESIS AND PHARMACEUTICAL FORMULATION THEREOF” (COUNCIL OF SCIENTIFIC AND INDUSTRIAL RESEARCH AN INDIAN …, priority 2021, published 2024)

Legend:
3T3L1 cells = assay: Adipogenesis of 3T3L1 cell line, Oil Red-O staining; format: cell-based
Description: The preadipocyte cell line 3T3L1 was seeded in complete DMEM (supplemented with 10% FBS). Once the cells reached almost full confluent state, they were treated with differentiation media (2 μg/mL Insulin, 0.5 mM IBMX and 1 μM Dexamethasone) for 2 days. After the differentiation induction, the cells were kept in maintenance media (2 μg/mL Insulin) for another 4-6 days with media change given every 2 days. The completion of adipogenesis was confirmed by the observation of lipid droplet accumulation in most of the cells. On the 6th day post induction of differentiation the cells were fixed with 3.7% formaldehyde solution followed by staining with Oil Red-O dye (prepared in 60% isopropanol) for 1 hour at room temperature. The incorporated dye was extracted using isopropanol and absorbance values were determined spectrophotometrically at 510 nm to estimate total amount of lipid accumulation under different experimental conditions.

[1] = test system: C57BL/6J mice maintained on high fat diet; assay: Weight gain of mice maintained on high fat diet, compound mixed with diet; format: in vivo; conditions: 50 mg/kg bw mixed with high fat diet
Description: Male C57BL/6J mice (8 weeks old) were obtained and acclimatized for 1 week prior to experiments. Mice were maintained on a 12-hour light/dark cycle at 22+/−3° C. and a relative humidity of 55% and given ad libitum access to food and water. The age-matched C57BL/6J mice were maintained on a standard laboratory chow diet or high fat diet (60 kcal % fat) with or without compound of Formula I (50 mg/kg body weight) and water. Body weight and food intake was measured twice every week.
Trend of weight gaining after 16 weeks of C57BL6/J mice maintained on normal chow diet, high fat diet and high fat diet mixed with compound of Formula I was plotted (FIG. 9) (panel i); n=4 in each group:one-way ANOVA with Dunnett's multiple comparison; * P<0.05, ** P<0.01, *** P<0.001, ns: not significant. Representative images of dissected bodies showing fat accumulation (panel ii) and epididymal fat pads (panel iii) of the mice from three groups. Representative images of morphology of adipose tissue (iv) and liver (v) from the mice of the three groups, as studied by hematoxylin and eosin staining.

[2] = Single dose toxicity study for maximum tolerated dose; format: in vivo
Description: The single dose toxicity study on compound X was conducted in accordance with Good Laboratory Practice Principles as published by the OECD in 1998, in accordance with the Drugs and Cosmetics Rule (New Drugs and Clinical trials, 2019/DCGI). Compound X (formulated in vehicle i.e. 0.5% sodium salt of carboxymethyl cellulose) was administered to Sprague Dawley rats once by oral route on the day of scheduled treatment. The three treatment groups were 250 mg, 500 mg, and 1000 mg/kg body weight, while vehicle control was administered to control group. The rat equivalent doses were calculated from the dosage used in mice experiments following FDA guidelines for drug administration. The doses finally administered were 10, 20 and 40 times the corresponding mice equivalent dose. Food, but not water, was removed thus letting the animals fast over-night prior to dosing. […] Animals were subsequently observed once daily for any signs of toxicity, mortality, or any other observations including conditions of skin, hair coat, eyes, mucous membrane, movement, activity, tremors, convulsions, salivation, diarrhea, posture, piloerection and lethargy. Food intake, water intake and body weight of animals was recorded weekly. Terminal sacrifice of surviving animals was performed after 14 days using CO2 euthanasia technique following which animals were necropsied. Animals were fasted over night before necropsy. Gross observations were recorded.

[3] = test system: genes associated with adipogenesis; assay: RT-PCR of adipogenesis related genes in 3T3L1; format: cell-based; conditions: 3T3L1, RT-PCR
Description: Total RNA was isolated from the treated 3T3L1 cells by phenol-chloroform method. The isolated RNA samples were treated with 2 units/μL DNase I to remove any residual DNA followed by overnight ethanol precipitation at −80° C. RNA integrity was checked in 1% agarose gel. 2 μg RNA was used for cDNA synthesis using oligo dT primers. RT-PCR was done using primers of adipogenesis related genes followed by detection with SYBR Green.
RT-PCR analysis was performed to show downregulation of genes associated with adipogenesis by compound of Formula I (FIG. 5). Error bars denote mean+/−SD of three biological replicates, one-way ANOVA with Dunnett's multiple comparison; * P<0.05, ** P<0.01, *** P<0.001, ns: not significant.

COc1ccc(C(=O)C2=C3OC(C)(C)[C@@H](CC=C(C)C)C[C@@]34C[C@@H](CC=C(C)C)C(C)(C)[C@@](CC=C(C)C)(C2=O)C4=O)cc1OC [Compound X]
adipogenesis, Oil-Red O staining (3T3L1 cells): inhibition of adipogenesis
adipose tissue hypertrophy [1]: less hypertrophy
liver lipid accumulation [1]: less lipid accumulation
weight gain ([1]; 16 weeks): prevented weight gain
gross morphological changes in organs ([2]; 250, 500, 1000 mg/kg single oral dose, necropsy): no gross morphological changes in any organ
Average food intake, Final ([2]; Female, 250 mg/Kg bw): 16.65 gram/day/animal
Average food intake, Initial ([2]; Female, 250 mg/Kg bw): 20 gram/day/animal
Average food intake, Middle ([2]; Female, 250 mg/Kg bw): 16.32 gram/day/animal
Average water intake, Final ([2]; Female, 250 mg/Kg bw): 16.65 ml/day/animal
Average water intake, Initial ([2]; Female, 250 mg/Kg bw): 20 ml/day/animal
Average water intake, Middle ([2]; Female, 250 mg/Kg bw): 16.32 ml/day/animal
Body weight, Final ([2]; Female, 250 mg/Kg bw): 176.35 gram
Body weight, Initial ([2]; Female, 250 mg/Kg bw): 151.99 gram
Body weight, Mid ([2]; Female, 250 mg/Kg bw): 174.54 gram
Average food intake, Final ([2]; Female, 500 mg/Kg bw): 17.09 gram/day/animal
Average food intake, Initial ([2]; Female, 500 mg/Kg bw): 18.22 gram/day/animal
Average food intake, Middle ([2]; Female, 500 mg/Kg bw): 18.13 gram/day/animal
Average water intake, Final ([2]; Female, 500 mg/Kg bw): 17.09 ml/day/animal
Average water intake, Initial ([2]; Female, 500 mg/Kg bw): 18.22 ml/day/animal
Average water intake, Middle ([2]; Female, 500 mg/Kg bw): 18.13 ml/day/animal
Body weight, Final ([2]; Female, 500 mg/Kg bw): 175.8 gram
Body weight, Initial ([2]; Female, 500 mg/Kg bw): 153.32 gram
Body weight, Mid ([2]; Female, 500 mg/Kg bw): 176.55 gram
Average food intake, Final ([2]; Female, 1000 mg/Kg bw): 16.97 gram/day/animal
Average food intake, Initial ([2]; Female, 1000 mg/Kg bw): 18.17 gram/day/animal
Average food intake, Middle ([2]; Female, 1000 mg/Kg bw): 17.82 gram/day/animal
Average water intake, Final ([2]; Female, 1000 mg/Kg bw): 16.97 ml/day/animal
Average water intake, Initial ([2]; Female, 1000 mg/Kg bw): 18.17 ml/day/animal
Average water intake, Middle ([2]; Female, 1000 mg/Kg bw): 17.82 ml/day/animal
Body weight, Final ([2]; Female, 1000 mg/Kg bw): 179.52 gram
Body weight, Initial ([2]; Female, 1000 mg/Kg bw): 153.81 gram
Body weight, Mid ([2]; Female, 1000 mg/Kg bw): 178.58 gram
Average food intake, Final ([2]; Male, 250 mg/Kg bw): 22.62 gram/day/animal
Average food intake, Initial ([2]; Male, 250 mg/Kg bw): 20.03 gram/day/animal
Average food intake, Middle ([2]; Male, 250 mg/Kg bw): 20.79 gram/day/animal
Average water intake, Final ([2]; Male, 250 mg/Kg bw): 22.62 ml/day/animal
Average water intake, Initial ([2]; Male, 250 mg/Kg bw): 20.03 ml/day/animal
Average water intake, Middle ([2]; Male, 250 mg/Kg bw): 20.79 ml/day/animal
Body weight, Final ([2]; Male, 250 mg/Kg bw): 244.21 gram
Body weight, Initial ([2]; Male, 250 mg/Kg bw): 171.94 gram
Body weight, Mid ([2]; Male, 250 mg/Kg bw): 216.62 gram
Average food intake, Final ([2]; Male, 500 mg/Kg bw): 23.29 gram/day/animal
Average food intake, Initial ([2]; Male, 500 mg/Kg bw): 20.99 gram/day/animal
Average food intake, Middle ([2]; Male, 500 mg/Kg bw): 21.14 gram/day/animal
Average water intake, Final ([2]; Male, 500 mg/Kg bw): 23.29 ml/day/animal
Average water intake, Initial ([2]; Male, 500 mg/Kg bw): 20.99 ml/day/animal
Average water intake, Middle ([2]; Male, 500 mg/Kg bw): 21.14 ml/day/animal
Body weight, Final ([2]; Male, 500 mg/Kg bw): 243.14 gram
Body weight, Initial ([2]; Male, 500 mg/Kg bw): 176.3 gram
Body weight, Mid ([2]; Male, 500 mg/Kg bw): 229.75 gram
Average food intake, Final ([2]; Male, 1000 mg/Kg bw): 19.95 gram/day/animal
Average food intake, Initial ([2]; Male, 1000 mg/Kg bw): 20.76 gram/day/animal
Average food intake, Middle ([2]; Male, 1000 mg/Kg bw): 20.74 gram/day/animal
Average water intake, Final ([2]; Male, 1000 mg/Kg bw): 19.95 ml/day/animal
Average water intake, Initial ([2]; Male, 1000 mg/Kg bw): 20.76 ml/day/animal
Average water intake, Middle ([2]; Male, 1000 mg/Kg bw): 20.74 ml/day/animal
Body weight, Final ([2]; Male, 1000 mg/Kg bw): 226.19 gram
Body weight, Initial ([2]; Male, 1000 mg/Kg bw): 176.24 gram
Body weight, Mid ([2]; Male, 1000 mg/Kg bw): 217.65 gram
effect on food and water consumption ([2]; both gender, all three doses vs vehicle control): no significant treatment related effect
expression of genes associated with adipogenesis [3]: downregulation
